Source: article PMC8511295 (European journal of medicinal chemistry, 2021)
Like-named read-outs stand apart in the source and are kept apart here.

Tests used:
[1] = test system: HIV-1 NL4–3-HXB2-Luc pseudotyped virus expressing Env of the lab-adapted HIV-1HXB-2 (CXCR4); format: cell-based; conditions: TZM-bl cells
[2] = test system: HIV-1WEAUd15.410.5017 (NIH # 11578), dual-tropic (CCR5/CXCR4) clinical isolate of subtype B; format: cell-based
[3] = test system: control pseudovirus MLV-GP/VSV-G/Luc; experiment: microbe, parasite or virus in culture; format: cell-based
[4] = target: HIV-1 Reverse Transcriptase (RT) (Human immunodeficiency virus type 1 group M subtype B, UniProt P04585); experiment: Colorimetric Reverse Transcriptase Assay; format: biochemical
in vitro = conditions: human
[5] = test system: recombinant CD4-dependent HIV-1ADA virus in CD4-negative Cf2Th-CCR5 cells; format: cell-based; conditions: escalating concentrations

Row | SMILES | antiviral activity against HIV-1HXB-2, in words [1] | also measured
1 | Cl.Cl.NC[C@@H](NC(=O)CNCc1ccc(Cl)cc1)c1ncc(CO)s1 [4(fR), N-(2-amino-1-(5-(hydroxymethyl)thiazol-2-yl)ethyl)-2-((4-chlorobenzyl)amino)acetamide dihydrochloride] | None of these derivatives showed any appreciable antiviral activity | 
2 | Cl.Cl.NC[C@H](NC(=O)CNCc1ccc(Cl)cc1)c1ncc(CO)s1 [4(fS), N-(2-amino-1-(5-(hydroxymethyl)thiazol-2-yl)ethyl)-2-((4-chlorobenzyl)amino)acetamide dihydrochloride] | None of these derivatives showed any appreciable antiviral activity | 
3 | NC[C@@H](NC(=O)c1ccc(C2CCCCC2)[nH]1)c1ncc(CO)s1 [6(fR), N-(2-amino-1-(5-(hydroxymethyl)thiazol-2-yl)ethyl)-5-cyclohexyl-1H-pyrrole-2-carboxamide] | poorly actives | 
4 | NC[C@H](NC(=O)c1ccc(C2CCCCC2)[nH]1)c1ncc(CO)s1 [6(fS), N-(2-amino-1-(5-(hydroxymethyl)thiazol-2-yl)ethyl)-5-cyclohexyl-1H-pyrrole-2-carboxamide] | poorly actives | 
5 | NC[C@@H](NC(=O)c1ccc(OCC2CCCCC2)cc1)c1ncc(CO)s1 [7(fR), N-(2-amino-1-(5-(hydroxymethyl)thiazol-2-yl)ethyl)-4-(cyclohexylmethoxy)benzamide] | poorly active | 
6 | NC[C@H](NC(=O)c1ccc(OCC2CCCCC2)cc1)c1ncc(CO)s1 [7(fS), N-(2-amino-1-(5-(hydroxymethyl)thiazol-2-yl)ethyl)-4-(cyclohexylmethoxy)benzamide] | poorly active | 
7 | NC[C@@H](NC(=O)c1ccc(NCC2CCCCC2)cc1)c1ncc(CO)s1 [8(fR), N-(2-amino-1-(5-(hydroxymethyl)thiazol-2-yl)ethyl)-4-((cyclohexylmethyl)amino)benzamide] | poorly active | 
8 | NC[C@H](NC(=O)c1ccc(NCC2CCCCC2)cc1)c1ncc(CO)s1 [8(fS), N-(2-amino-1-(5-(hydroxymethyl)thiazol-2-yl)ethyl)-4-((cyclohexylmethyl)amino)benzamide] | poorly active | 
9 | NC[C@@H](NC(=O)Cc1ccc(OCC2CCCCC2)cc1)c1ncc(CO)s1 [9(fR), N-(2-amino-1-(5-(hydroxymethyl)thiazol-2-yl)ethyl)-2-(4-(cyclohexylmethoxy)phenyl)acetamide] | no significant antiviral activity | 
10 | NC[C@H](NC(=O)Cc1ccc(OCC2CCCCC2)cc1)c1ncc(CO)s1 [9(fS), N-(2-amino-1-(5-(hydroxymethyl)thiazol-2-yl)ethyl)-2-(4-(cyclohexylmethoxy)phenyl)acetamide] | no significant antiviral activity | 
11 | NCC(NC(=O)c1cc2ccc(Cl)cc2[nH]1)c1nc(CO)cs1 [12(fR), N-(2-amino-1-(4-(hydroxymethyl)thiazol-2-yl)ethyl)-6-chloro-1H-indole-2-carboxamide] |  | antiviral activity against the clinical isolate HIV-1WEAUd15.410.5017, in words [2]: best antiviral activity; activity against control pseudovirus VSV-G, in words [3]: poorly active against VSV-G; IC50 ([3]; Pseudovirus, U87/CD4/CCR5, read-out: IC50 against VSV-G): 15.7 ± 1 µM; activity against HIV-1 RT, in words [4]: no activity; CC50 (in vitro): 83 to 84 µM
12 | NCC(NC(=O)c1cc2ccc(Cl)cc2[nH]1)c1nc(CO)cs1 [12(fS), N-(2-amino-1-(4-(hydroxymethyl)thiazol-2-yl)ethyl)-6-chloro-1H-indole-2-carboxamide] |  | antiviral activity against the clinical isolate HIV-1WEAUd15.410.5017, in words [2]: best antiviral activity; activity against control pseudovirus VSV-G, in words [3]: poorly active against VSV-G; IC50 ([3]; read-out: IC50 against VSV-G): 20.5 ± 0.5 µM
13 | NCC(NC(=O)c1ccc(-c2ccc(Cl)cc2)[nH]1)c1nccs1 [13(fR), N-(2-amino-1-(thiazol-2-yl)ethyl)-5-(4-chlorophenyl)-1H-pyrrole-2-carboxamide] |  | antiviral activity against the clinical isolate HIV-1WEAUd15.410.5017, in words [2]: best antiviral activity; activity against control pseudovirus VSV-G, in words [3]: poorly active against VSV-G
14 | NCC(NC(=O)c1ccc(-c2ccc(Cl)cc2)[nH]1)c1nccs1 [13(fS), N-(2-amino-1-(thiazol-2-yl)ethyl)-5-(4-chlorophenyl)-1H-pyrrole-2-carboxamide] |  | antiviral activity against the clinical isolate HIV-1WEAUd15.410.5017, in words [2]: best antiviral activity; activity against control pseudovirus VSV-G, in words [3]: poorly active against VSV-G
15 | O=C(N[C@H](CC1CCNCC1)c1nc(CO)cs1)c1ccc(-c2ccc(C(F)(F)F)cc2)[nH]1 [18(fR), N-(1-(4-(hydroxymethyl)thiazol-2-yl)-2-(piperidin-4-yl)ethyl)-5-(4-(trifluoromethyl)phenyl)-1H-pyrrole-2-carboxamide] | low antiviral activity | 
16 | O=C(N[C@@H](CC1CCNCC1)c1nc(CO)cs1)c1ccc(-c2ccc(C(F)(F)F)cc2)[nH]1 [18(fS), N-(1-(4-(hydroxymethyl)thiazol-2-yl)-2-(piperidin-4-yl)ethyl)-5-(4-(trifluoromethyl)phenyl)-1H-pyrrole-2-carboxamide] | low antiviral activity | 
17 | CC1(C)CC(NC(=O)C(=O)Nc2ccc(Cl)cc2)CC(C)(C)N1 [NBD-556, reference compound] |  | activity against HIV-1 RT, in words [4]: no activity; relative virus infectivity (enhancement of infection), in words [5]: enhanced the infection of the Cf2Th-CCR5 cells in a dose-dependent manner
18 | Cc1cc(-c2ccc(C(F)(F)F)cn2)[nH]c1C(=O)NC(CN)c1ncc(CO)s1 (stereo not shown) [NBD-14270] |  | relative virus infectivity (enhancement of infection), in words [5]: did not enhance HIV-1 infectivity
19 | NCC(NC(=O)C(=O)NCc1ccc(Cl)c(F)c1)c1ncc(CO)s1 (stereo not shown) [compound 3, N’-[2-amino-1-[5-(hydroxymethyl)thiazol-2-yl]ethyl]-N-[(4-chloro-3-fluorophenyl)methyl]oxamide] | failed to show any significant antiviral activity | 
20 | Cc1nc(C(CN)NC(=O)NC(=O)c2ccc(Cl)cc2)sc1CO (stereo not shown) [compound 5, N-((2-amino-1-(5-(hydroxymethyl)-4-methylthiazol-2-yl)ethyl)carbamoyl)-4-chlorobenzamide] | failed to show any significant antiviral activity | 
21 | Cc1nc(C(CN)NC(=O)c2cc3ccccc3[nH]2)sc1CO (stereo not shown) [compound 10, N-(2-amino-1-(5-(hydroxymethyl)-4-methylthiazol-2-yl)ethyl)-1H-indole-2-carboxamide] | virtually inactive | 
22 | Cc1nc(C(CN)NC(=O)c2cc3cc(Cl)ccc3[nH]2)sc1CO (stereo not shown) [compound 11, N-(2-amino-1-(5-(hydroxymethyl)-4-methylthiazol-2-yl)ethyl)-5-chloro-1H-indole-2-carboxamide] | virtually inactive | 
23 | NCC(NC(=O)c1cc2ccc(Cl)cc2[nH]1)c1nc(CO)cs1 (stereo not shown) [compound 12, N-(2-amino-1-(4-(hydroxymethyl)thiazol-2-yl)ethyl)-6-chloro-1H-indole-2-carboxamide] | moderate activity | 
24 | Cl.NCCNC(=O)c1ccc(-c2ccc(Cl)c(F)c2)[nH]1 [compound 14, N-(2-aminoethyl)-5-(4-chloro-3-fluorophenyl)-1H-pyrrole-2-carboxamide hydrochloride] | low μM range | 
25 | O=C(NC1(c2nc(CO)cs2)CCNCC1)c1ccc(-c2ccc(C(F)(F)F)cc2)[nH]1 [compound 17, N-(4-(4-(hydroxymethyl)thiazol-2-yl)piperidin-4-yl)-5-(4-(trifluoromethyl)phenyl)-1H-pyrrole-2-carboxamide] |  | antiviral activity against the clinical isolate HIV-1WEAUd15.410.5017, in words [2]: best antiviral activity
